From DBAASP
Values after ≈ are worked out from the molar mass of the structure shown.

Key:
Assay in all cases: ≥ marks a high value that may be exact or a test limit, other limits are often not marked, values filed in µg/mL are converted to µM
[1] = tested on: Bacillus subtilis KCTC 1918
[2] = tested on: Candida albicans TIMM 1768
[3] = tested on: Proteus vulgaris KCTC 2433
[4] = tested on: Saccharomyces cerevisiae KCTC 7296
[5] = tested on: Salmonella typhimurium KCTC 1926
[6] = tested on: Staphylococcus aureus KCTC 1621
[7] = tested on: Trichosporon beigelii KCTC 7707
Escherichia coli BL21AI = tested on: Escherichia coli BL21AI
[8] = tested on: Escherichia coli DSM 10233
[9] = tested on: Klebsiella pneumoniae DSM 681
[10] = tested on: Micrococcus luteus ATCC 10240
[11] = tested on: Acinetobacter baumannii NM109
[12] = tested on: Acinetobacter baumannii NM124
[13] = tested on: Acinetobacter baumannii NM35
[14] = tested on: Acinetobacter baumannii NM75
[15] = tested on: Acinetobacter baumannii NM8
[16] = tested on: Candida albicans ATCC 90028
[17] = tested on: Enterococcus faecalis ATCC 29212
[18] = tested on: Escherichia coli ATCC 25726
[19] = tested on: Klebsiella pneumoniae ATCC 700603
[20] = tested on: Pseudomonas aeruginosa ATCC 27853
[21] = tested on: Staphylococcus aureus 127/08
[22] = tested on: Staphylococcus aureus 145/08
[23] = tested on: Staphylococcus aureus 274/08
[24] = tested on: Staphylococcus aureus ATCC 25923
[25] = tested on: Staphylococcus aureus S908
[26] = tested on: Staphylococcus aureus T4/6
[27] = tested on: Staphylococcus aureus V4180
[28] = tested on: Staphylococcus epidermidis RP62A/1
[29] = tested on: Staphylococcus epidermidis RP62A
[30] = tested on: Staphylococcus epidermidis T37/8
[31] = tested on: Staphylococcus epidermidis T6/19
[32] = tested on: Stenotrophomonas maltophilia B32/1
[33] = tested on: Stenotrophomonas maltophilia B32/4
[34] = tested on: Stenotrophomonas maltophilia B5/5
[35] = tested on: Stenotrophomonas maltophilia B6/2
[36] = tested on: Stenotrophomonas maltophilia U8908
[37] = tested on: Bacillus subtilis IFO 3143
[38] = tested on: Bacillus subtilis KCTC 3068
[39] = tested on: Escherichia coli IFO 12734
[40] = tested on: Escherichia coli KCTC 1682
[41] = tested on: Pseudomonas aeruginosa IFO 12582
[42] = tested on: Pseudomonas aeruginosa KCTC 1637
[43] = tested on: Staphylococcus aureus IFO 12732
[44] = tested on: Staphylococcus epidermidis KCTC 1917

Compound: CC[C@H](C)[C@H](NC(=O)CNC(=O)[C@H](CC(C)C)NC(=O)[C@H](CCCN=C(N)N)NC(=O)[C@H](CCCCN)NC(=O)[C@H](Cc1ccccc1)NC(=O)[C@@H](NC(=O)[C@H](CCCCN)NC(=O)[C@H](CCCCN)NC(=O)[C@H](C)N)C(C)C)C(=O)NCC(=O)N[C@@H](C)C(=O)N[C@H](C(=O)N[C@@H](CC(C)C)C(=O)N[C@@H](CCCCN)C(=O)N[C@H](C(=O)N[C@@H](CC(C)C)C(=O)N[C@@H](CCCCN)C(=O)N[C@@H](CCCCN)C(=O)NCC(=O)O)C(C)C)C(C)C [AKKVFKRLGIGAVLKVLKKG]
- MIC [1]: 0.78 µM (≈ 1.68 µg/mL)
- MIC [2]: 6.25 µM (≈ 13.5 µg/mL)
- MIC [3]: 0.39 µM (≈ 0.84 µg/mL)
- MIC [4]: 6.25 µM (≈ 13.5 µg/mL)
- MIC [5]: 0.19 µM (≈ 0.409 µg/mL)
- MIC [6]: 1.56 µM (≈ 3.36 µg/mL)
- MIC [7]: 4.42 µM (≈ 9.52 µg/mL)

Compound: CC[C@H](C)[C@H](NC(=O)[C@@H]1CCCN1C(=O)[C@H](CCCN=C(N)N)NC(=O)[C@@H]1CCCN1C(=O)[C@H](Cc1cnc[nH]1)NC(=O)[C@H](CO)NC(=O)[C@@H](NC(=O)[C@@H]1CCCN1C(=O)[C@H](CCCN=C(N)N)NC(=O)[C@@H]1CCCN1C(=O)[C@@H](NC(=O)[C@H](Cc1ccc(O)cc1)NC(=O)[C@@H]1CCCN1C(=O)[C@H](CCCN=C(N)N)NC(=O)[C@@H]1CCCN1C(=O)[C@H](CCCCN)NC(=O)CN)[C@@H](C)O)[C@@H](C)O)C(=O)N[C@@H](CCCN=C(N)N)C(=O)N[C@H](C(=O)O)C(C)C [GKPRPYTPRPTSHPRPIRV]
- MIC (Escherichia coli BL21AI): 3.62 µM (≈ 8 µg/mL)
- MIC [8]: 0.904 µM (≈ 2 µg/mL)
- MIC [9]: 3.62 µM (≈ 8 µg/mL)
- MIC [10]: 0.904 µM (≈ 2 µg/mL)

Compound: CC[C@H](C)[C@H](NC(=O)[C@H](C)NC(=O)[C@H](CCCCN)NC(=O)CNC(=O)[C@@H](NC(=O)[C@H](Cc1cnc[nH]1)NC(=O)CNC(=O)[C@H](CC(C)C)NC(=O)[C@H](CC(C)C)NC(=O)[C@@H](NC(=O)CNC(=O)[C@@H](NC(=O)[C@H](CC(C)C)NC(=O)CN)C(C)C)[C@@H](C)O)[C@@H](C)CC)C(=O)N[C@@H](CC(C)C)C(=O)NCC(=O)O [GLVGTLLGHIGKAILG]
- MIC [11]: ≥ 250 µM
- MIC [12]: ≥ 250 µM
- MIC [13]: ≥ 250 µM
- MIC [14]: ≥ 250 µM
- MIC [15]: ≥ 250 µM
- MIC [16]: ≥ 250 µM
- MIC [17]: 250 µM (≈ 380 µg/mL)
- MIC [18]: ≥ 250 µM
- MIC [19]: > 250 µM
- MIC [20]: > 250 µM
- MIC [21]: ≥ 125 µM
- MIC [22]: ≥ 250 µM
- MIC [23]: ≥ 250 µM
- MIC [24]: 125 µM (≈ 190 µg/mL)
- MIC [25]: ≥ 125 µM
- MIC [26]: ≥ 250 µM
- MIC [27]: ≥ 250 µM
- MIC [28]: ≥ 125 µM
- MIC [29]: ≥ 125 µM
- MIC [30]: ≥ 250 µM
- MIC [31]: ≥ 125 µM
- MIC [32]: ≥ 250 µM
- MIC [33]: ≥ 250 µM
- MIC [34]: ≥ 250 µM
- MIC [35]: ≥ 250 µM
- MIC [36]: ≥ 250 µM

Compound: CC(C)C[C@H](NC(=O)[C@H](Cc1ccc(O)cc1)NC(=O)[C@H](Cc1cnc[nH]1)NC(=O)[C@@H](NC(=O)[C@H](CC(C)C)NC(=O)[C@H](C)NC(=O)[C@H](C)NC(=O)[C@H](CCCCN)NC(=O)[C@H](C)NC(=O)[C@@H](NC(=O)[C@H](Cc1cnc[nH]1)NC(=O)[C@H](CCCCN)NC(=O)[C@H](C)NC(=O)[C@@H](NC(=O)[C@H](Cc1cnc[nH]1)NC(=O)[C@H](C)NC(=O)[C@H](C)NC(=O)[C@H](CCCCN)NC(=O)[C@H](CCCCN)NC(=O)[C@H](Cc1ccccc1)NC(=O)[C@H](Cc1ccccc1)NC(=O)[C@H](CO)NC(=O)CNC(=O)[C@H](Cc1c[nH]c2ccccc12)NC(=O)CN)C(C)C)C(C)C)[C@@H](C)O)C(=O)O [GWGSFFKKAAHVAKHVAKAALTHYL]
- MIC [37]: 0.365 µM (≈ 1 µg/mL)
- MIC [38]: 4 µM (≈ 11 µg/mL)
- MIC [39]: 0.73 µM (≈ 2 µg/mL)
- MIC [40]: 1 µM (≈ 2.74 µg/mL)
- MIC [41]: 1.46 µM (≈ 4 µg/mL)
- MIC [42]: 1 µM (≈ 2.74 µg/mL)
- MIC [5]: 1 µM (≈ 2.74 µg/mL)
- MIC [43]: 1.46 µM (≈ 4 µg/mL)
- MIC [6]: 0.5 µM (≈ 1.37 µg/mL)
- MIC [44]: 0.5 µM (≈ 1.37 µg/mL)
